ChEMBL document CHEMBL2321709, “Acetylcholinesterase immobilized capillary reactors-tandem mass spectrometry: an on-flow tool for ligand screening” (J Med Chem, 2013)

Legend:
[1] = target: Acetylcholinesterase (Electrophorus electricus) (UniProt O42275); experiment: Inhibition of Electrophorus electricus AChE using acetylcholine as substrate by chromatography relative to control; settings: concentration not given here
[2] = target: Acetylcholinesterase (Electrophorus electricus, UniProt O42275); experiment: Competitive inhibition of Electrophorus electricus AChE using acetylcholine as substrate by Lineweaver-Burk plot method
Chain of Acetylcholinesterase (O42275 whole entry): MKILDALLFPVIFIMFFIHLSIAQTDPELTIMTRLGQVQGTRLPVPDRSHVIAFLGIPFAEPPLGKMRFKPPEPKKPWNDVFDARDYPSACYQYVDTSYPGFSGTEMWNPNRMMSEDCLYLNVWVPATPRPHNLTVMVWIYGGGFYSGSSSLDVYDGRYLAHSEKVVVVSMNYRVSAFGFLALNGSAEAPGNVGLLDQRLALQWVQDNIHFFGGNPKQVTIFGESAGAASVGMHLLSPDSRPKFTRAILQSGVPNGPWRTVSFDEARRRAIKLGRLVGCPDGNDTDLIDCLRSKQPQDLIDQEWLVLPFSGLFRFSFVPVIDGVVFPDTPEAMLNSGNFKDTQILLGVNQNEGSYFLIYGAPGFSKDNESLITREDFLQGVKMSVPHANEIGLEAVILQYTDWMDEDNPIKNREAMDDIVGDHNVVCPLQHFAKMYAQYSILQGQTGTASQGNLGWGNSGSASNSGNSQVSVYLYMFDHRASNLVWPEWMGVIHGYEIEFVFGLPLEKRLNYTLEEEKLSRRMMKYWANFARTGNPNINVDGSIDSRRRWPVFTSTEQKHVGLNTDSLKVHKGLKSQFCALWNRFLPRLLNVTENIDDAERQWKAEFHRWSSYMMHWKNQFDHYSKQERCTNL

Chain of Acetylcholinesterase (Electrophorus electricus) (O42275 24-633 limits assumed): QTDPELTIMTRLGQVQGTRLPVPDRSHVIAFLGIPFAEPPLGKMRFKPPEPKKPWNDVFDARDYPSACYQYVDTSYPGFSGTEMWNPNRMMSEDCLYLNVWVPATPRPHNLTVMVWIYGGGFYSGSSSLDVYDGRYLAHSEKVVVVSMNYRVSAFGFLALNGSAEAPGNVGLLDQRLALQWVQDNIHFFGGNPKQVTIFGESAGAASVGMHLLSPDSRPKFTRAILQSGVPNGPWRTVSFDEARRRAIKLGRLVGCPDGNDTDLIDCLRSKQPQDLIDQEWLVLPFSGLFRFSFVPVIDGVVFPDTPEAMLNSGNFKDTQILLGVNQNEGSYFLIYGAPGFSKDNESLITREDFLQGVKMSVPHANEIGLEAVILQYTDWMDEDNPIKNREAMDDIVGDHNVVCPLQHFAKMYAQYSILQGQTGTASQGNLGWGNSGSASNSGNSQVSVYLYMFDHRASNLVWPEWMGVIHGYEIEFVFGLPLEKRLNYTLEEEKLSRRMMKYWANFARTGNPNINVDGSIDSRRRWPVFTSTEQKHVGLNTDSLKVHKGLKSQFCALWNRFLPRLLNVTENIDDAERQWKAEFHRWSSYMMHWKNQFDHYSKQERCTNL

Row | SMILES | inhibition [1] | IC50 [2] | Ki [2]
1 | O=C(NCCN1CCCCC1)c1cc2ccccc2oc1=O | > 80% | 12.6 µM | 13.8 µM
2 | CCOC(=O)c1cc2ccc(OCCN3CCCCC3)cc2oc1=O | > 80% | 0.356 µM | 0.031 µM
